The text below walks through data of patent publication US5463125A, “Phenyl alcohol amides having anticonvulsant activity” (priority 1993, dated 1995).

Read-outs that look alike come from different tables or passages of the source.

The nature of series [1]: Maximal electroshock test (MES). Type of series: in vivo, mice (male albino, NMR-1 strain). To be noted: Mus musculus, ip, mice, at time of peak drug effect; 95% confidence interval. Here is the method: (§1) Male albino mice (NMR-1 strain) weighing 28-32 gm were used in a mouse anticonvulsant and rotarod test. Each of the test compounds (n=0, 1 and 2) were dissolved in a 10% polyethylene glycol-400 saline solution and were administered intraperitoneally (i.p.). Convulsant agents were dissolved in saline solution, buffered with 15 mmol/l Tris-HCl, pH 7.4, except for bicuculline, which was first dissolved in 0.025N HCl, adjusting to pH 4 with a 0.15 mol/l citrate-phosphate buffer. The convulsant dose inducing seizures in 97% of mice (CD97) was determined and used in the pharmacological test. CD97 values obtained were: 85 for pentetrazol (PTZ), 15 for 4-aminopyridine (4-AP), 3.3 for bicuculline (BIC), 20 for thiosemicarbazide (TSC), and 2.0 for strychnine (STR) expressed as mg kg^-1. The time of peak drug effect was evaluated for each anticonvulsant before determining the dose-response curves. Convulsant agents were either injected subcutaneously (s.c. into the back of the neck (BIC, picrotoxin (PIC) and PTZ) or administered i.p. (4-AP, TSC and STR).
(§2) Abolition of the tonic components of the seizure was the end point, except for PTZ, where suppression of seizures of at least 5 seconds duration was considered the end point. […] The ED50, TD50 and 95% confidence intervals were calculated by the method of Litchfield and Wilcoxon. See Litchfield et al., J. Pharmacol. Exp. Ther. 96, 99 (1949).
In a maximal electroshock test, maximal seizures were induced by application of an electrical current across the brain via carclip electrodes. The stimulus parameters for mice were 30-35 mA, A.C. in pulses of 60 Hz for 200 ms. Each compound was tested at the time of peak drug effect. The dose at which the hind limb tonic seizure was blocked in 50% of the animals (ED50 value) was determined by probit analysis.
(§3) (PTZ), 4aminopyridine (4AP), bicuculline (BIC), thiosemicarbazide (TSC),
On the technique in general: In the maximal electroshock model the usual endpoint is tonic extension of the hind limbs.

Series [2] in a line: Pentetrazol (PTZ) anticonvulsant test. Type of series: in vivo, mice (male albino, NMR-1 strain). To be noted: Mus musculus, ip, 10 min, mice; PTZ s.c.; suppression of seizures of at least 5 s; for compound 1 PTZ given 10 min postdosing (footnote d). As for the experimental part:
as §1, §2
^a) Seizures provoked by: maximal electroshock (MES), pentetrazol
as §3

Series [3] is described as follows: 4-aminopyridine (4-AP) anticonvulsant test. Type of series: in vivo, mice (male albino, NMR-1 strain). To be noted: Mus musculus, ip, mice; 4-AP i.p.; abolition of tonic components. As for the experimental part:
as §1, §2, §3

Series [4] can be described thus: Bicuculline (BIC) anticonvulsant test. Type of series: in vivo, mice (male albino, NMR-1 strain). To be noted: Mus musculus, ip, mice; BIC s.c.; abolition of tonic components. As for the experimental part: as §1, §2, §3
Series [5] can be described thus: Thiosemicarbazide (TSC) anticonvulsant test. To be noted: Mus musculus, ip, 10 min, mice, abolition of tonic components, for compound 1 TSC given 10 min postdosing. Type of series: in vivo, mice (male albino, NMR-1 strain). Here is the method:
as §1, §2, §3

The nature of series [6]: Strychnine (STR) anticonvulsant test. Type of series: in vivo, mice (male albino, NMR-1 strain). To be noted: for ED50: Mus musculus, ip, read-out: ED50 STR. As for the experimental part: as §1, §2
(§4) strychnine (STR) and picrotoxin (PIC).

Series [7] can be described thus: Picrotoxin (PIC) anticonvulsant test. Type of series: in vivo, mice (male albino, NMR-1 strain). As for the experimental part:
as §1, §2, §4

Series [8] can be described thus: Accelerating rotarod ataxia test. Type of series: in vivo, mice (male albino, NMR-1 strain). As for the experimental part:
as §1
In a rotarod test, separate groups of mice were trained to stay on an accelerating rotarod that rotated initially at 2.16 rpm, then increased in speed to reach 22.5 rpm in 4 min. The drum diameter was 2.8 cm. Trained animals were dosed with the test compound or drug vehicle and were tested at the time of peak drug effect to measure the effects of the drug on motor performance. The dose at which 50% of the animals fell off the rotarod (TD50 value) was determined by probit analysis.
^b) Accelerating rotarod.
Background: In the rotarod test animals must keep their balance on a rotating rod.

The nature of the next series: Solubility. Type of series: physicochemical. Here is the method:
The solid formed was separated by means of filtration and washed with cold benzene. This solid is the DL-HEPA that crystallizes from benzene. […]. […] Fusion point was 91°-92° C. Yield was 20%.
While still warm, the mixture was carefully neutralized with a 5% sulfuric acid solution using litmus paper. Once neutralized, the mixture was extracted with 50 ml volumes of ethyl ether. The ether was distilled in a rotating evaporator, and the white solid residue was the DL-HEPP that crystallizes with water. […] Its fusion point is 101°-102° C.

For series [9] the following is noted: constant speed rotarod; data obtained from NIH, ADD program; cited from earlier work.
For series [10] the following is noted: mice; cited from earlier work.
For series [11] the following is noted: cats; cited from earlier work.
The conditions of series [12]: patients having grand mal seizures; cited from earlier work.
For series [13] the following is noted: in vivo; cited from earlier work.
The conditions of series [14]: data obtained from NIH, ADD program; cited from earlier work.
The conditions of series [15]: data obtained from NIH, ADD program; cited from earlier work. This is another data set of the same source.
Series [16] is described as follows: Convulsant dose inducing seizures in 97% of mice (CD97). Type of series: in vivo, mice (male albino, NMR-1 strain). As for the experimental part: as §1
Series [17] in a line: Preliminary test against convulsions provoked by pentylenetetrazol. Type of series: in vivo. The conditions noted are these: 100 mg kg^-1, i.p. The text has this: Phenyl alcohol amide derivatives of the foregoing compounds wherein n=0 to 2 may be synthesized by substitution of the ethyl group at the center of chirality by either a methyl or phenyl group. […] Substitution of ethyl by phenyl in the n=0 and n=1 produces a loss in anticonvulsant activity.

Where [18] appears, read: administered i.p. (4-AP, TSC, STR).

`CCC(O)(C(N)=O)c1ccccc1` (racemic) [Compound 1, (±)-2-hydroxy-2-phenylbutyramide]: the ED50 (commonly the dose that gives a 50% effect, or the effect in half of the subjects) in series [1] was 126 mg/kg; in series [2] it was 67 mg/kg; in [3] it was 24 mg/kg; in series [4], 29 mg/kg; in series [5], 47 mg/kg; in series [6], 56 mg/kg. In addition, in series [6] (comparison in words), the “strychnine activity relative to the n=2 compound” value was “more than twice that of the n=2 compound”. The PIC effect entry in [7] (at 80 mgkg^-1) is on record as “No effects”. The compound further registered a TD50 rotarod ataxia in series [8] (accelerating rotarod, i.p., mice, compound 2 tested 30 min postdosing) of 132 mg/kg. Further, the “solubility (insoluble in)” value in “Solubility” is on record as “insoluble in cold benzene or water”. For the same compound, the “solubility (soluble in)” value in “Solubility” was “soluble in ethyl alcohol, chloroform and hot benzene”.
On to `CCC(O)(CCC(N)=O)c1ccccc1` (racemic) [Compound 3, (±)-4-hydroxy-4-phenylhexanamide], for which the ED50 in series [1] was determined as 148 mg/kg; in [2], 63 mg/kg; in [3] it was 29 mg/kg; in [4] it was 30 mg/kg; in series [5], 73 mg/kg; in [6] it was 106 mg/kg. The PIC effect entry in [7] (at 120 mgkg^-1) is on record as “No effects”. In series [8] (rotarod ataxia test), this compound displayed a TD50 of 111. Also, the TD50 rotarod ataxia in [9] is 168 mg/kg. The “protection against seizures provoked by bicuculline” value in series [10] was “protects mice against seizures”. Further, the “protection against seizures provoked by maximal electroshock” value in series [10] is “protects mice against seizures”. Also, in series [10], the “protection against seizures provoked by pentetrazol” value is “protects mice against seizures”. Moreover, in series [11], the “protection against hippocampal kindling” value is on record as “protects”. Also, the clinical antiepileptic action result in series [12] was “potent clinical antiepileptic action”. For the same compound, in [13], the “profile of anticonvulsant activity” value was “broad profile of anticonvulsant activity”. Besides, in [14], the “ED50 MES” value is 147 mg/kg. Moreover, the “ED50 PTZ” value in series [15] was 58 mg/kg.
On to `Nc1ccncc1` [4-aminopyridine], for which, in series [16] (setting [18]), the CD97 is 15 mg/kg.
`CC(O)(CC(N)=O)c1ccccc1` (stereo not drawn) [methyl group in the n=1 compound]: the “anticonvulsant activity against pentylenetetrazol convulsions” value in series [17] was “suppresses anticonvulsant activity”.
In the case of `NNC(N)=S` [thiosemicarbazide], the CD97 in [16] (setting [18]) is 20 mg/kg.
As to `CC(O)(CCC(N)=O)c1ccccc1` (stereo not drawn) [n=2 derivative], the “anticonvulsant activity against pentylenetetrazol convulsions” value in series [17] is reported as “conserves half-potency”.
Take `O=C1C[C@@H]2OCC=C3CN4CC[C@]56c7ccccc7N1[C@H]5[C@H]2[C@H]3C[C@H]46` [strychnine]: the CD97 in series [16] (setting [18]) came out at 2.0 mg/kg.
As to `CC(O)(C(N)=O)c1ccccc1` (stereo not drawn) [n=0 derivative], the “anticonvulsant activity against pentylenetetrazol convulsions” value in series [17] is “retains activity”.
In series [16] (administered s.c. (PTZ, BIC)), `CN1CCc2cc3c(cc2[C@H]1[C@@H]1OC(=O)c2c1ccc1c2OCO1)OCO3` [bicuculline] displayed a CD97 of 3.3 mg/kg.
Compound `C1CCc2nnnn2CC1` [pentetrazol] came in with a CD97 in series [16] (administered s.c. (PTZ, BIC)) of 85 mg/kg.
For `CCC(O)(CC(N)=O)c1ccccc1` (racemic) [Compound 2, (±)-3-hydroxy-3-phenylpentamide], the 50% effective dose (ED50) came to 144 mg/kg in series [1]; 63 mg/kg in series [2]; 19 mg/kg in series [3]; 38 mg/kg in series [4]; 43 mg/kg in series [5]. In addition, the “Maximum protection, STR” value in series [6] (at 100 mgkg^-1, STR administered 15 min postdosing) is listed as 30%. In series [7] (at 130 mgkg^-1, PIC administered 15 min postdosing), the “Maximum protection, PIC” value stood at 37%. In addition, the picrotoxin test activity entry in series [7] (dose of 130 mg kg^-1) is “active”. Further, the “neurotoxicity in rotarod ataxia test” value in [8] (in words) is on record as “unusually low neurotoxicity”. In addition, the TD50 in series [8] (mouse, in vivo, ip, accelerating rotarod, i.p., mice, compound 2 tested 30 min postdosing, read-out: TD50 rotarod ataxia) was determined as 214 mg/kg. The “solubility (insoluble in)” value in “Solubility” was “insoluble in cold water”. Further, in the series “Solubility”, the “solubility (soluble in)” value is “soluble in ethyl alcohol, benzene and hot water”.
